Measured values reported in US8129396B2, “2-[1H-benzimidazol-2(3H)-ylidene]-2-(pyrimidin-2-yl)acetamides and 2-[benzothiazol-2(3H)-ylidene]-2-(pyrimidin-2-yl)acetamides as kinase inhibitors” (Telik, Inc., priority 2008, dated 2012).

Columns and labels:
Aurora B kinase = target: T1, Aurora B kinase (Homo sapiens, UniProt Q96GD4); assay: Aurora B kinase assay (IMAP fluorescence polarization); assay type: biochemical; conditions: 10 μM ATP; rounded to 1 significant figure; read-out: Aur-B IC50
T1 construct: purchased BPS Bioscience
T1 sequence (Q96GD4 whole entry): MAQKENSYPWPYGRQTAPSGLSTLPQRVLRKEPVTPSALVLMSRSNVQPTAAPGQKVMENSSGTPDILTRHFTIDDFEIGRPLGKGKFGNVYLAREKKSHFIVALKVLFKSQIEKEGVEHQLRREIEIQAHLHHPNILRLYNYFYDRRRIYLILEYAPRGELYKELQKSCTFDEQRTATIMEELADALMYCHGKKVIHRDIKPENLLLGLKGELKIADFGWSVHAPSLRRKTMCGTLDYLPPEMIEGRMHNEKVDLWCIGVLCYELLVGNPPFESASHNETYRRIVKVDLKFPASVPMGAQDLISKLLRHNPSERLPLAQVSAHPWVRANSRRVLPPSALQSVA
Excerpt: (§1) The cell lines HL60 (human promyelocytic leukemia) and HCT116 (human colon carcinoma) were obtained from the American Type Culture Collection, Manassas, Va., U.S.A., and HUVEC-2 (human umbilical vein endothelial cells) from BD Biosciences, Bedford, Mass., U.S.A. Aurora A kinase was obtained from Upstate Biotech, Billerica, Mass., U.S.A.; Aurora B kinase from BPS Bioscience, San Diego, Calif., U.S.A.; and VEGFR2 kinase from Cell Signaling Technology, Danvers, Mass., U.S.A. The IMAP FP Screening Express kit was obtained from Molecular Devices, Sunnyvale, Calif., U.S.A.; the CellTiter-Glo assay kit from Promega Corporation, Madison, Wis., U.S.A.; and the Cellular DNA Cytometric Analysis Reagent Kit and BrdU labeling and detection kit from Roche Diagnostics Corporation, Indianapolis, Ind., U.S.A. All products were used in accordance with manufacturer's directions. Kinase inhibition assays and the histone phosphorylation (p-H3) assay were conducted in duplicate, and the cytotoxicity and HUVEC proliferation assays were conducted in triplicate, in each case with solvent control.
(§2) The kinase reaction was initiated by adding 100 nM fluorescein labeled PKAtide and 10 μM adenosine triphosphate (ATP), and allowed to continue for 45 min at room temperature, after which it was stopped by adding binding reagent (1:400 dilution in binding buffer A). After 30 min of room temperature incubation with shaking, the fluorescence polarization was measured on a LJL plate reader. Aurora B kinase assay: performed as for the Aurora A kinase assay, but using Aurora B kinase instead of Aurora A kinase.

VEGFR2 kinase = target: T2, VEGFR2 kinase (Homo sapiens, UniProt P35968); assay: VEGFR2 kinase assay; assay type: biochemical; conditions: 6 μM ATP, 1 mM MnCl2; rounded to 1 significant figure
T2 construct: purchased Cell Signaling Technology
T2 sequence (P35968 20-1356): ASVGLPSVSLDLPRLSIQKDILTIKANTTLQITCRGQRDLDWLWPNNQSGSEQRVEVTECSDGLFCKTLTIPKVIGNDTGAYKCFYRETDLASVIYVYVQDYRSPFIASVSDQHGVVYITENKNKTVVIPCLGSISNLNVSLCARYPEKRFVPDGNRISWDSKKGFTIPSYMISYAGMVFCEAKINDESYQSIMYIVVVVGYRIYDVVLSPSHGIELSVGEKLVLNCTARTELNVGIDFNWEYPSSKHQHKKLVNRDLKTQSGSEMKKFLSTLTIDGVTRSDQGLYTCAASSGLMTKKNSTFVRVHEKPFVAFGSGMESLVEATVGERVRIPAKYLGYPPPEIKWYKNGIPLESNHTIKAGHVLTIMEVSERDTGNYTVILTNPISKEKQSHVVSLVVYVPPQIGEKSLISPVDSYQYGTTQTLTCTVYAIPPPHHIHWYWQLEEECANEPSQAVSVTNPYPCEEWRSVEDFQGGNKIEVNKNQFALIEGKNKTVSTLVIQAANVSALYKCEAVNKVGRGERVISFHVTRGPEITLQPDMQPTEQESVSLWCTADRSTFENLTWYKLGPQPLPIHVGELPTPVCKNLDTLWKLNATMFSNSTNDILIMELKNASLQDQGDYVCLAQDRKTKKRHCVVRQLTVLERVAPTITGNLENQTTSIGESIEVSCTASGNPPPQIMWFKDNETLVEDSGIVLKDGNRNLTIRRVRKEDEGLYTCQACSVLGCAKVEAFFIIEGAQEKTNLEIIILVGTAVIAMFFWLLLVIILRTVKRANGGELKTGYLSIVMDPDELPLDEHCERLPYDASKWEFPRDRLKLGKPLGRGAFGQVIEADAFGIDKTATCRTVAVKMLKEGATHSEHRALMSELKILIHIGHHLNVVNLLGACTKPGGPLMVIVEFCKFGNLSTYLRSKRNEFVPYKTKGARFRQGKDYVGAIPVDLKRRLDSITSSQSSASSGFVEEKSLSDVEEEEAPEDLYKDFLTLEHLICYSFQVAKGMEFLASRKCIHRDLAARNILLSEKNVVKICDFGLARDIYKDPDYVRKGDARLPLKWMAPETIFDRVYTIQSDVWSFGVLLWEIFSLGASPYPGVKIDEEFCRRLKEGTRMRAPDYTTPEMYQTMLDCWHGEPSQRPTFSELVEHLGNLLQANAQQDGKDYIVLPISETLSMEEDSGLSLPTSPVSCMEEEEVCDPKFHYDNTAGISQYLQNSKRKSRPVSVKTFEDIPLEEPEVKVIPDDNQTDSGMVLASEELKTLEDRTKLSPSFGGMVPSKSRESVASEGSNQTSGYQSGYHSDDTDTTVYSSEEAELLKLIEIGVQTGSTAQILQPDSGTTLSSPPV
Excerpt: as §1
This assay was performed as for the Aurora A kinase assay, using VEGFR2 kinase, CSKtide as the substrate with 6 μM ATP and 1 mM MnCl2, a kinase reaction time of 1 hr, and dilution of the binding reagent 1:1200 in binding buffer A/binding buffer B (1:1).

[1] = system: HCT116 (human colon carcinoma) cells; assay: HCT116 cytotoxicity assay (CellTiter-Glo); assay type: cell-based; conditions: HCT-116, 72 h, cytotoxicity, three days culture, read-out: HCT116 IC50
Excerpt: as §1
Log-phase cells were trypsinized, collected by centrifugation, and resuspended in a small volume of fresh medium, and the density of viable cells was determined following Trypan Blue staining. Cells were diluted in fresh media (1×10^4 cells/mL for HL60 and 4×10^4 cells/mL for HCT116 cells), the test compounds (concentrations between 0.1 μM and 200 μM, dissolved in DMSO, 50 μL) added immediately after dilution to achieve a final DMSO concentration of 0.5%, then the suspensions added at 150 μL/well to 96-well plates, and incubated overnight to allow attachment in the case of adherent cells. The cells were cultured for three days (about three doubling times). The cells were then collected by centrifugation, and 100 μL of the culture supernatant was replaced by the CellTiter-Glo reagent. After incubation for 15 minutes at room temperature, the plate was read with a luminometer.

Aurora A kinase = target: T3, Aurora A kinase (Homo sapiens, UniProt O14965); assay: Aurora A kinase assay (IMAP fluorescence polarization); assay type: biochemical; conditions: 10 μM ATP; rounded to 1 significant figure; read-out: Aur-A IC50
T3 construct: purchased Upstate Biotech
T3 sequence (O14965 1-403): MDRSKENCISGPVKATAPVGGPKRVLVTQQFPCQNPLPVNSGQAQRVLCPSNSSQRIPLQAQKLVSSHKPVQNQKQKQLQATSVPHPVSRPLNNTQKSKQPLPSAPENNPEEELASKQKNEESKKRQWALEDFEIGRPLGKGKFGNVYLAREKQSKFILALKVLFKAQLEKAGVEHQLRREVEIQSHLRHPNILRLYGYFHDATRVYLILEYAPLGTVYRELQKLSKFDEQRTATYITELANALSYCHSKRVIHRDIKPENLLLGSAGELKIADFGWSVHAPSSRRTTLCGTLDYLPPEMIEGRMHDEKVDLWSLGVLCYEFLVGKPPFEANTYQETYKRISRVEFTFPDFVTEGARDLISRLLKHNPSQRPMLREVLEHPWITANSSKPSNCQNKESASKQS
Excerpt: as §1
as §2, with “Aurora A kinase assay: the test compounds were diluted in dimethylsulfoxide (DMSO, eight concentrations with serial 3-fold dilutions) and incubated (final DMSO concentration 2.5%) with Aurora A kinase at room temperature for 5 min in kinase reaction buffer with 1 mM dithiothreitol (IMAP FP Screening Express). The” for “The”

p-H3 in HCT116 cells = assay: Histone phosphorylation (p-H3) assay; assay type: cell-based; conditions: Homo sapiens, HCT-116; HCT116 cells, 4 hr incubation; read-out: p-H3 IC50
Excerpt: as §1
Log phase HCT116 cells were seeded at 2.5×10^4 cells/well in a 96-well plate and allowed to attach overnight. The test compounds were diluted in DMSO (8 concentrations with serial 3-fold dilutions) and added to the cells (0.5% DMSO final concentration), and the cells incubated for 4 hr. The cells were then washed three times with cold phosphate-buffered saline (PBS), and lysis buffer was added. After 30 min shaking at 4° C. and centrifugation, the supernatants were transferred to a nitrocellulose membrane by a “dot-blot” apparatus. After washing the wells, the membrane was processed for Western blot. Detection of p-H3 and β-actin was performed on the same membrane with primary rabbit anti-p-H3 and mouse anti-β-actin antibodies followed by secondary goat anti-rabbit IRDye800 and goat anti-mouse AlexaFluor 680 antibodies. The membranes were scanned on an Odyssey scanner.

Row | SMILES | IC50 (Aurora B kinase) [nM] | IC50 (VEGFR2 kinase) [nM] | IC50 [1] [nM] | IC50 (Aurora A kinase) [nM] | IC50 (p-H3 in HCT116 cells) [nM]
1 | CCc1cnc(/C(C(N)=O)=C2/Nc3ccccc3S2)nc1 [Compound 21A] | 100 | 1000 | 20000 | 200 | –
2 | COC(=O)c1cc(C)nc(/C(C(N)=O)=C2/Nc3ccccc3S2)n1 [Compound 23A] | 6 | 100 | 50000 | 70 | 8000
3 | NC(=O)C(=C1Nc2ccc([N+](=O)[O-])cc2S1)c1nccc(C(F)(F)F)n1 (single isomer, unassigned) [Compound 26A, 2-[6-nitrobenzothiazol-2(3H)-ylidene]-2-(4-trifluoromethylpyrimidin-2-yl)acetamide] | 100 | 1000 | 20000 | 200 | > 50000
4 | NC(=O)/C(=C1\Nc2ccc(I)cc2S1)c1nccc(C(F)(F)F)n1 [Compound 25A] | 100 | 400 | 10000 | 200 | > 50000
5 | COC(=O)c1cnc(C(C(N)=O)=C2Nc3ccccc3N2)nc1C(F)(F)F [Compound 4A] | 10 | 30 | 2000 | 4 | > 40000
6 | Cc1ccnc(C(C(N)=O)=C2Nc3ccccc3N2)n1 [Compound 19A] | 30 | – | 20000 | 400 | > 50000
7 | NC(=O)/C(=C1\Nc2ccc(C(=O)N(CCO)CCO)cc2N1)c1nccc(C(F)(F)F)n1 [Compound 30A] | 10 | 8 | – | 10 | 1000
8 | Cc1ccnc(/C(C(N)=O)=C2/Nc3ccccc3S2)n1 [Compound 18A] | 40 | 500 | 20000 | 200 | 2000
9 | NC(=O)/C(=C1\Nc2ccccc2S1)c1nc(OCCN2CCOCC2)cc(C(F)(F)F)n1 [Compound 14A] | 30 | 80 | 8000 | 50 | > 50000
10 | NC(=O)/C(=C1\Nc2ccc(CCO)cc2N1)c1nccc(C(F)(F)F)n1 [Compound 105A] | 7 | – | – | 5 | 100
11 | COC(=O)c1ccc2c(c1)N/C(=C(/C(N)=O)c1nccc(C(F)(F)F)n1)N2 [Compound 29A] | 10 | 100 | 200 | 30 | > 5000
12 | NC(=O)/C(=C1\Nc2ccc(CO)cc2N1)c1nccc(C(F)(F)F)n1 [Compound 35A] | 5 | 20 | 200 | 9 | 600
13 | NC(=O)/C(=C1\Nc2cccc(C(=O)NCCCN3CCOCC3)c2S1)c1nccc(C(F)(F)F)n1 [Compound 52A] | 60 | 100 | 1000 | 60 | > 50000
14 | NC(=O)/C(=C1/Nc2cc(F)cc(F)c2N1)c1nccc(C(F)(F)F)n1 [Compound 36A] | 40 | 200 | 4000 | 30 | > 5000
15 | NCCCNC(=O)c1ccc2c(c1)S/C(=C(/C(N)=O)c1nccc(C(F)(F)F)n1)N2 [Compound 65A] | 20 | 7 | 200 | 30 | 400
16 | CCN(C(=O)c1ccc2c(c1)N/C(=C(/C(N)=O)c1nccc(C(F)(F)F)n1)N2)c1cccnc1 [Compound 43A] | 10 | – | – | 6 | –
17 | NC(=O)/C(=C1\Nc2ccc(CCN3CCOCC3)cc2N1)c1nccc(C(F)(F)F)n1 [Compound 102A] | 7 | – | – | 4 | 50
18 | NCCCNC(=O)c1ccc2c(c1)N/C(=C(/C(N)=O)c1nccc(C(F)(F)F)n1)N2 [Compound 64A] | 20 | 10 | 2000 | 50 | 900
19 | Cn1cncc1CCc1ccc2c(c1)S/C(=C(/C(N)=O)c1nccc(C(F)(F)F)n1)N2 [Compound 98A] | 8 | – | – | 6 | –
20 | NC(=O)/C(=C1\Nc2ccccc2S1)c1nc(NCCN2CCOCC2)cc(C(F)(F)F)n1 [Compound 137A] | 30 | 40 | 2000 | 80 | 2000
21 | Cc1cc(C)nc(/C(C(N)=O)=C2/Nc3ccccc3S2)n1 [Compound 22A] | 10 | 200 | 10000 | 80 | 2000
22 | Cc1cc(C(=O)O)nc(/C(C(N)=O)=C2/Nc3ccccc3S2)n1 [Compound 24A] | 1000 | 400 | > 50000 | 900 | –
23 | NC(=O)/C(=C1\Nc2ccc(C(=O)O)cc2S1)c1nccc(C(F)(F)F)n1 [Compound 27A] | 9 | 10 | 7000 | 3 | 1000
24 | COC(=O)c1cnc(/C(C(N)=O)=C2/Nc3ccccc3S2)nc1C(F)(F)F [Compound 3A] | 10 | 90 | 3000 | 20 | 20000
25 | NC(=O)/C(=C1\Nc2ccc(C(=O)NC3CCNCC3)cc2N1)c1nccc(C(F)(F)F)n1 [Compound 70A] | 10 | 4 | 600 | 60 | 1000
26 | NC(=O)/C(=C1\Nc2ccc(N3CCC(N)C3)cc2S1)c1nccc(C(F)(F)F)n1 (centres unmarked) [Compound 123A] | 40 | 90 | 4000 | 100 | 2000
